Assays:
hNOP receptor [1] = molecular target: T1, hNOP receptor (Homo sapiens, UniProt P41146); type: cell-based
NOP receptor [2] = molecular target: T2, NOP receptor (Mus musculus, UniProt P35377); type: cell-based
NOP receptor [3] = molecular target: T2, NOP receptor; assay: In vivo NOP receptor phosphorylation in brain of NOP-eGFP knock-in mice; settings: SB 612111 30 mg/kg pretreatment 30 min, then AT-202 30 mg/kg
hNOP receptor [4] = molecular target: T1, hNOP receptor; type: cell-based; remark: listed apart in the source
NOP receptor [5] = settings: cited from earlier work

T1 sequence (P41146 whole entry): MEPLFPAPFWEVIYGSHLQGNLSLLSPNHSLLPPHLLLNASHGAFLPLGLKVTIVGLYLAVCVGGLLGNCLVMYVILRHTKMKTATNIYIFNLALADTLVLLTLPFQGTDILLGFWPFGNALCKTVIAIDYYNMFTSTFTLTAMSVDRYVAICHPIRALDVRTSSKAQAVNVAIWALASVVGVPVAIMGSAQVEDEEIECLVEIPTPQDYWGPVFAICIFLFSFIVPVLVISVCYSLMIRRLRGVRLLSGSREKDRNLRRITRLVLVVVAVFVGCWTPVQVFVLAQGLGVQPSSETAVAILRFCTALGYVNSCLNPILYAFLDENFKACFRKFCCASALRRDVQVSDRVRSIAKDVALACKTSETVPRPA
T2 sequence (P35377 whole entry): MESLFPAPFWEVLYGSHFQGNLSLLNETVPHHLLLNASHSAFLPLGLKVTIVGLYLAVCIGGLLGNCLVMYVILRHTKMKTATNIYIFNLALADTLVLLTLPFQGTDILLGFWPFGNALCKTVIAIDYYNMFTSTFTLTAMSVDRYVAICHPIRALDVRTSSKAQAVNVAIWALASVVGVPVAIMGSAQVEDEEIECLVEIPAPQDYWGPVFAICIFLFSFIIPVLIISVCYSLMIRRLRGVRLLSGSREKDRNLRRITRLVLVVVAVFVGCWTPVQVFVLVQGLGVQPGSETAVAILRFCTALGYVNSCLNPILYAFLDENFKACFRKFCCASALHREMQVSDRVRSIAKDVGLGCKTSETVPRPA

C=C[C@@]1(C)CC(=O)[C@]2(O)[C@@]3(C)[C@@H](O)CCC(C)(C)[C@@H]3[C@H](O)[C@H](OC(C)=O)[C@@]2(C)O1 [Forskolin, forskolin]
NOP receptor phosphorylation by second messenger kinase activators (hNOP receptor [1]): did not produce any detectable phosphorylation

CC1(N2CCC(n3c([C@@H]4CCCNC4)nc4ccccc43)CC2)CCCCCCC1 [MCOPPB]
NOP receptor internalization in ventral midbrain neurons (NOP receptor [2]): strong MCOPPB-induced NOP receptor internalization

Cc1cccc2c1CC[C@H](CN1CCC(c3c(Cl)cccc3Cl)CC1)C[C@@H]2O [SB 612111, (−)-cis-1-methyl-7-[[4-(2,6-dichlorophenyl)piperidin-1-yl]methyl]-6,7,8,9-tetrahy dro-5H-benzocyclohepten-5-ol]
Inhibition of N/OFQ-induced NOP receptor phosphorylation (hNOP receptor [1]): completely blocked N/OFQ-induced phosphorylation
Block of AT-202-induced NOP receptor phosphorylation in mouse brain (NOP receptor [3]): could be blocked

CN1CCc2cc(Cl)c(O)cc2[C@@H](c2ccccc2)C1 [SCH23390]
Effect on N/OFQ-induced hyperpolarization (hNOP receptor [4]): reversed the N/OFQ-evoked hyperpolarization

buprenorphine
Agonist-induced NOP receptor phosphorylation at Ser346, Ser351 and Thr362/Ser363 (hNOP receptor [1]): complete lack of NOP receptor phosphorylation
Agonist activity in G protein signaling / GIRK channel activation (hNOP receptor [4]): partial agonistic activity with a remarkably reduced maximal effect compared with N/OFQ
Agonist efficacy at the NOP receptor in cAMP inhibition assays (NOP receptor [5]): partial agonists

From article PMC6934085 (Science signaling, 2019)
